Measured values published in US5288723A, “A composition and a method of using veratridine and epinephrine as a local anesthetic” (priority 1991, dated 1994).
“Also recorded” adds a separate entry of the source.

Experiments:
[1] = Toxic signs (salivation) in rats after sciatic nerve injection; format: in vivo, Male Sprague-Dawley rats; conditions: co-injection of VTD with EPI
Protocol: Male Sprague-Dawley rats (200-250 g) were divided into 4 groups of 10 each. 0.1 ml of VTD alone at 0.2, 0.5 or 0.7 mM or vehicle (saline) was injected at the depression between the femoral head and the hip. The same animals were injected with VTD with epinephrine (EPI, 1:200,000) one week later, using the previously uninjected leg. Motor and sensory functions were rated by the respective monitoring of toe curling and/or foot dragging, and by testing the nocifensive withdrawal reflex to pinch of the foot pad of the injected hindlimb. Saline alone affected neither function.

rat sciatic nerve [2] = assay: Sensory block of rat sciatic nerve in vivo (nocifensive withdrawal reflex to pinch of the foot pad); parameters: species or system Male Sprague-Dawley rats; conditions: 2%=74 mM
rat sciatic nerve [3] = assay: Motor block of rat sciatic nerve in vivo (toe curling and/or foot dragging); parameters: species or system Male Sprague-Dawley rats

## CNC[C@H](O)c1ccc(O)c(O)c1 [EPI, epinephrine]
[1]
  Effect of EPI co-injection on VTD toxicity: decrease VTD-associated toxicity; also recorded: decreases the toxicity associated with higher concentrations of VTD

## CCN(CC)CC(=O)Nc1c(C)cccc1C [lidocaine]
Rat sciatic nerve [2]
  Sensory blockade duration: 78 min
  Sensory blockade onset: 1.3 min
  Sensory blockade, % of rats: 100%
  Sensory blockade, fraction of rats: 5/5
Rat sciatic nerve [3]; 2%=74 mM
  Motor blockade duration: 75 min
  Motor blockade onset: 1.9 min
  Motor blockade, % of rats: 96%
  Motor blockade, fraction of rats: 216/224

## CCCCN1CCCCC1C(=O)Nc1c(C)cccc1C (stereo not shown) [bupivacaine]
Rat sciatic nerve [3]; 0.75%=23 mM
  Motor blockade duration: 161 min
  Motor blockade onset: 4.8 min
  Motor blockade, % of rats tested: 86%
  Motor blockade, fraction of rats tested: 205/239
